From patent US20220204575A1, “MODULATING SURVIVAL OF THERAPEUTIC CELLS AND METHODS, CELLS AND NUCLEIC ACIDS RELATED THERETO” (The Regents of the University of California, priority 2019, published 2022)

Assays:
Assay type in all cases: cell-based
primary human T cells = experiment: Constitutive overexpression of pro-apoptotic BCL-2 family proteins in T cells, FACS at culture day 12
Description: The abilities of several pro-apoptotic proteins (e.g., BIM, truncated Bid (tBID), and BAD) to induce T cell apoptosis when synthetically overexpressed from a constitutive promoter were tested. The tested T cells were also engineered to constitutively overexpress anti-apoptotic BCL-2.
Without being bound by theory, these effects were likely due to leaky expression of BIM, the high effectiveness of BIM in inducing apoptosis, or a combination thereof.

engineered T cells = experiment: Inducible tBID circuit with varied levels of constitutive BCL-2 expression, T cell survival; settings: constant antigen-induced tBID expression, varied constitutive BCL-2
Source text: The ability of anti-apoptotic BCL-2 to buffer a pro-apoptotic protein was further tested in an inducible tBID circuit (described in more detail below) with varied levels of constitutive BCL-2 expression (schematically depicted in FIG. 5). In this experiment, constant levels of tBID expression were induced by the presence of antigen expressing target cells, BCL-2 expression levels were varied, and the amount of T cell survival at different levels of BCL-2 expression was quantitated (FIG. 6).

T cells = experiment: Basal T cell death from inducible response element constructs in the absence of synNotch antigen
Source text: Differences in the potency of various BCL-2 family members in inducible systems for therapeutic cell population control were also investigated and differences in potency were observed. For example, molecular circuits were designed and tested that included a response element construct including a UAS, inducible by the released transcription factor (TF) domain of a synNotch receptor, driving expression of various different BCL-2 family members (e.g., BIM, tBID, etc.) and a constitutive reporter (mCherry) (see schematic depiction provided in FIG. 19). Upon binding its target antigen, the synNotch receptor releases the TF domain which activates the UAS thereby driving expression of the respective BCL-2 family protein and the mCherry reporter is used to observe the size of the cell population thereafter.

[1] = tested on: human primary CD4 T cells; experiment: Anti-Her2 synNotch driving pro-apoptotic BCL-2 family protein X, T cell survival with antigen-expressing target cells; settings: in the presence of antigen-expressing target cells
Description: For example, a circuit was designed, as schematically depicted in FIG. 27, with an anti-Her2 synNotch driving expression of a pro-apoptotic BCL-2 family protein “X”, where X stands for the various pro-apoptotic BCL-2 family members were tested in the depicted circuit. As shown, upon the anti-Her2 scFv portion of the synNotch receptor binding Her2 expressed by a target cell, the transcription factor (TF) portion of the synNotch, containing Gal4-VP64, is released and inducing expression of the pro-apoptotic BCL-2 family protein “X”. The level of induced apoptosis in the presence of cells expressing the target antigen, as compared to control cells not expressing the target antigen, was then assessed.
Results of testing BID, tBID, PUMA, BMF, HRK and BIK as pro-apoptotic BCL-2 family protein “X” in this system are shown in FIG. 28, along with a negative control employing BFP in place of the pro-apoptotic BCL-2 family protein “X”.
Thus, the therapeutic cells encoding the BID circuit were able to survive BID induction.

In the case of “BCL-2: anti-apoptotic BCL-2 protein, human UniProt P10415, SEQ ID NO: 105”, the “buffering against apoptotic effects of tBID and BIM” value (primary human T cells; constitutive co-expression of BCL-2) is reported as “at least partially buffer against the apoptotic effects”, the “T cell survival at different levels of BCL-2 expression” value (engineered T cells) is reported as “titratably buffers against apoptosis” and the “T cell survival at different levels of BCL-2 expression” value (engineered T cells; listed as BCL2) is reported as “less tBID-induced apoptosis”.

In the case of “BIM: pro-apoptotic BCL-2 family protein, human BIM UniProt O43521, SEQ ID NO: 99”, the “ability to induce T cell apoptosis / drive T cell death” value (primary human T cells; constitutive expression, with constitutive overexpression of BCL-2, culture day 12) is reported as “drove significant apoptosis”, the “basal T cell death from leaky expression” value (T cells; absence of synNotch target antigen, mCherry reporter) is reported as “sufficient to cause widespread T cell death” and the “cell death from uninduced inducible construct” value (T cells; uninduced, in the absence of co-expression with anti-apoptotic BCL-2) is reported as “leads to significant levels of cell death”.

With “BMF: pro-apoptotic BMF protein, human UniProt Q96LC9” the “induced apoptosis of T cells” value [1] was “induce apoptosis of human primary CD4 T cells”.

In the case of “HRK: pro-apoptotic HRK protein, human UniProt O00198, SEQ ID NO: 103”, the “induced apoptosis of T cells” value [1] is reported as “induce apoptosis of human primary CD4 T cells”.
